# Experimental data: patent US4105659A, “1,2,3,4,5,6-Hexahydro-2,6-methano-3-benzazocines” (Sterling Drug Inc., priority 1964, dated 1978)
# Structures can show the parent of a compound that is named as a salt. Where two headings read alike, the source gives them in different places.
# What was measured:
# [1] = system: analgesic effect of meperidine hydrochloride; experiment: Antagonism of meperidine analgesia, modified D'Amour-Smith test; details: for ED50: Rattus norvegicus, read-out: dosage of antagonist which reduced the analgesic effect of meperidine by approximately 50 per cent; for dosage of antagonist which reduced the analgesic effect of meperidine by approximately 50 per cent: subcutaneous, rats, lactic acid acid-addition salt, versus 60 mg./kg. meperidine hydrochloride
# [2] = system: analgesic effect of morphine sulfate; experiment: Antagonism of morphine analgesia, modified D'Amour-Smith test; details: for dosage of antagonist which reduced the analgesic effect of morphine by approximately 50 per cent: subcutaneous, rats, lactic acid acid-addition salt, versus 15 mg./kg. morphine sulfate; for ED50: Rattus norvegicus, sc, read-out: dosage of antagonist which reduced the analgesic effect of morphine by approximately 50 per cent
# [3] = Solubility, pH of solution and precipitation on pH adjustment or dilution; assay type: physicochemical; details: for pH at which a precipitate formed: 1 percent solution, addition of N/10 sodium hydroxide
# Description: A. A mixture of 8.7 g. of racemic cis 1,2,3,4,5,6-hexahydro-6,11-dimethyl-8-hydroxy-2,6-methano-3-benzazocine (which is also known as racemic cis 2'-hydroxy-5,9-dimethyl-6,7-benzomorphan), 6.0 g of 1-bromo-3-methyl-2-butene, 5.0 g. of sodium bicarbonate, and 125 ml. of N,N-dimethylformamide was stirred and refluxed for approximately 41/2 hours. The reaction mixture was then filtered, and the solid on the filter was washed with ethanol. The filtrate and the wash liquor were combined, concentrated under reduced pressure, and then extracted with chloroform. The chloroform extract was concentrated under reduced pressure to yield a syrup which weighed 15.8 g. This syrup was dissolved in 120 ml. of diethyl ether and the resulting solution was filtered to remove approximately one-half gram of a brown amorphous solid. The filtrate was extracted with a mixture of 5 ml. of concentrated hydrochloric acid and 20 ml. of water. To the extract there was added 5 ml. of concentrated ammonium hydroxide solution and ice. A pale tan syrup separated from solution and after stirring, this syrup solidified. The resulting pale tan solid was collected and dried; it weighed 10.6 g. After two recrystallizations from a mixture of methyl alcohol and water, with charcoaling, this solid weighed 8.2 g. and melted at 145°-147° C. The product thus obtained was racemic cis 1,2,3,4,5,6-hexahydro-3-(3-methyl-2-butenyl)-6,11-dimethyl-8-hydroxy-2,6-methano-3-benzazocine (Formula II: Y = --CH2 --CH=C(CH3)2; R^3 = --H), having the molecular formula C19 H27 NO. This product was soluble in a mixture of 0.35 ml. of N/2 hydrochloric acid and 0.15 ml. of water to the extent of 10 percent, the pH of the 1 percent solution being 2.80; and when the pH of the 1 percent solution was gradually raised by addition of N/10 sodium hydroxide solution, a precipitate formed at pH 5.4. When the base was converted to the hydrochloride and was then regenerated from this salt it melted at 151°-153° C. The hydrochloride of this base melted at 245°-247° C. (dec.). and the cyclohexylsulfamate of this base melted at 163°-166° C. The base formed a grayish-yellowtannate.
# The racemic trans product was converted to its hydrobromide, having the molecular formula C19 H27 NO·HBr, which was obtained as white needles which melted at 240°-241° C.
# The dextro trans product was converted to its hydrochloride, having the molecular formula C19 H27 NO·HCl, which was obtained as white crystals which melted at 254°-255° C.
# The levo trans product was converted to its hydrochloride, having the molecular formula C19 H27 NO·HCl, which was obtained as white crystals which melted at 254°-255° C. (dec.); this hydrochloride was soluble in water to the extent of 5 percent, the pH of a 1 percent aqueous solution being 5.7, a precipitate being formed when the 1 percent aqueous solution was adjusted to 7.0 by addition of N/10 sodium hydroxide solution.
# A. A mixture of 9.25 g. of racemic cis 1,2,3,4,5,6-hexahydro-6-ethyl-11-methyl-8-hydroxy-2,6-methano-3-benzazocine, 6.0 g. of 1-bromo-3-methyl-2-butene, 125 ml. of N,N-dimethylformamide, and 5.0 g. of sodium bicarbonate was stirred and refluxed for approximately 41/2 hours. The reaction mixture was then filtered, and the solid collected on the filter was washed with ethanol. The filtrate and the wash liquor were combined and concentrated under reduced pressure. To the resulting residue there was added 50 ml. of diethyl ether, and the mixture was filtered. Approximately 0.6 g. of solid was collected on the filter, and 8.2 g. of brown solid separated from the filtrate and was collected by filtration. These two crops of solid (8.8 g.) were combined, 25 ml. of methanol was added, and the mixture was boiled. Only a small portion of the solid dissolved. This mixture was mixed with 25 ml. of water and chilled. The mixture was filtered to collect 8.3 g. of pale tan solid which melted at 156°-158° C. […]
# [4] = Clinical analgesia in human subjects; assay type: in vivo; details: for dose approximately equivalent to 10 mg. of morphine sulfate as an analgesic: parenterally in humans; for analgesia in human subjects: parenterally
# Description: In human subjects, however, the compounds of Formulas I and II are valuable and effective agents for producing analgesia when administered in the general range of about 10 to 500 mg. per 70 kg. of subject weight, the dosage depending of course on the particular compound, the mode of administration, and the like. The following clinical results which were obtained in human subjects are illustrative. For oral administration the free base was used, and for parenteral (usually intramuscular) administration an aqueous solution of the lactate salt was used; the dosages are expressed in each instance in terms of milligrams of base per 70 kilograms of body weight of the human subject.
# [5] = ethanol, organic solvent or mixture, read-out: solubility in ethanol
# [6] = water, read-out: solubility in water
compound,measurement,setting,value
"CC(C)=CCN1CC[C@@]2(C)c3cc(O)ccc3C[C@@H]1[C@@H]2C (relative stereo) [4A (cyclohexylsulfamate), racemic cis 1,2,3,4,5,6-hexahydro-3-(3-methyl-2-butenyl)-6,11-dimethyl-8-hydroxy-2,6-methano-3-benzazocine]",ED50,[1]; po,125 mg/kg
"CC(C)=CCN1CC[C@]2(C)c3cc(O)ccc3C[C@H]1C2C (relative stereo) [4D (dextro), cis 1,2,3,4,5,6-hexahydro-3-(3-methyl-2-butenyl)-6,11-dimethyl-8-hydroxy-2,6-methano-3-benzazocine]",dosage of antagonist which reduced the analgesic effect of morphine by approximately 50 per cent,[2],21.0 mg/kg
same,dosage of antagonist which reduced the analgesic effect of meperidine by approximately 50 per cent,[1],18.0 mg/kg
"CC(C)=CCN1CC[C@]2(C)c3cc(O)ccc3C[C@H]1C2C (relative stereo) [4D (levo), cis 1,2,3,4,5,6-hexahydro-3-(3-methyl-2-butenyl)-6,11-dimethyl-8-hydroxy-2,6-methano-3-benzazocine]",dosage of antagonist which reduced the analgesic effect of morphine by approximately 50 per cent,[2],4.3 mg/kg
same,dosage of antagonist which reduced the analgesic effect of meperidine by approximately 50 per cent,[1],1.05 mg/kg
"CC(C)=CCN1CC[C@@]2(C)c3cc(O)ccc3C[C@H]1C2C (relative stereo) [4E (dextro) hydrochloride, trans 1,2,3,4,5,6-hexahydro-3-(3-methyl-2-butenyl)-6,11-dimethyl-8-hydroxy-2,6-methano-3-benzazocine]",pH of a 1 percent aqueous solution,[3],5.6
same,pH at which a precipitate formed,[3],> 6.9
same,solubility in water,[3]; water,5%
"CC(C)=CCN1CC[C@@]2(C)c3cc(O)ccc3C[C@H]1C2C (relative stereo) [4E (dextro), trans 1,2,3,4,5,6-hexahydro-3-(3-methyl-2-butenyl)-6,11-dimethyl-8-hydroxy-2,6-methano-3-benzazocine]",dosage of antagonist which reduced the analgesic effect of meperidine by approximately 50 per cent,[1],13.0 mg/kg
"CC(C)=CCN1CC[C@@]2(C)c3cc(O)ccc3C[C@H]1C2C (relative stereo) [4E (levo) hydrochloride, trans 1,2,3,4,5,6-hexahydro-3-(3-methyl-2-butenyl)-6,11-dimethyl-8-hydroxy-2,6-methano-3-benzazocine]",pH of a 1 percent aqueous solution,[3],5.7
same,pH at which a precipitate formed,[3],7.0
same,solubility in water,[3]; water,5%
"CC(C)=CCN1CC[C@@]2(C)c3cc(O)ccc3C[C@H]1C2C (relative stereo) [4E (levo), trans 1,2,3,4,5,6-hexahydro-3-(3-methyl-2-butenyl)-6,11-dimethyl-8-hydroxy-2,6-methano-3-benzazocine]",dosage of antagonist which reduced the analgesic effect of meperidine by approximately 50 per cent,[1],0.55 mg/kg
"CC(C)=CCN1CC[C@@]2(C)c3cc(O)ccc3C[C@@H]1[C@H]2C (relative stereo) [4E (racemic) hydrobromide, trans 1,2,3,4,5,6-hexahydro-3-(3-methyl-2-butenyl)-6,11-dimethyl-8-hydroxy-2,6-methano-3-benzazocine]",solubility,[3]; [5],10000 µg/mL
same,solubility,[3]; [6],< 2500 µg/mL
"CC(C)=CCN1CC[C@@]2(C)c3cc(O)ccc3C[C@@H]1[C@H]2C (relative stereo) [4E (racemic), trans 1,2,3,4,5,6-hexahydro-3-(3-methyl-2-butenyl)-6,11-dimethyl-8-hydroxy-2,6-methano-3-benzazocine]",ED50,[1]; sc,3.3 mg/kg
"C=C(C)CN1CC[C@@]2(C)c3cc(O)ccc3C[C@@H]1[C@@H]2C (relative stereo) [8A hydrochloride, 1,2,3,4,5,6-Hexahydro-3-(2-methyl-2-propenyl)-6,11-dimethyl-8-hydroxy-2,6-methano-3-benzazocine]",solubility,[3]; [5],< 10000 µg/mL
same,solubility,[3]; [6],< 2500 µg/mL
"C=CCN1CC[C@@]2(CC)c3cc(O)ccc3C[C@@H]1[C@@H]2C (relative stereo) [Example 1A, racemic cis 1,2,3,4,5,6-hexahydro-3-allyl-6-ethyl-11-methyl-8-hydroxy-2,6-methano-3-benzazocine]",dose approximately equivalent to 10 mg. of morphine sulfate as an analgesic,[4],~5 mg
same,analgesia in human subjects,[4]; 5 mg./kg. and 10 mg./kg.,effective and satisfactory analgesia
same,ED50,[2],0.044 mg/kg
same,ED50,[1]; sc,0.049 mg/kg
"C=CCN1CC[C@@]2(CC)c3cc(OC(C)=O)ccc3C[C@@H]1[C@@H]2C (relative stereo) [Example 1B, racemic cis 1,2,3,4,5,6-hexahydro-3-allyl-6-ethyl-11-methyl-8-acetoxy-2,6-methano-3-benzazocine]",ED50,[1]; sc,0.027 mg/kg
"CC[C@]12CCN(CC=C(C)C)[C@H](Cc3ccc(O)cc31)[C@@H]2C (relative stereo) [Example 7A, racemic cis 1,2,3,4,5,6-hexahydro-3-(3-methyl-2-butenyl)-6-ethyl-11-methyl-8-hydroxy-2,6-methano-3-benzazocine]",dose approximately equivalent to 10 mg. of morphine sulfate as an analgesic,[4],~40 mg
same,analgesia in human subjects,[4]; 10 mg./70 kg. to 80 mg./70 kg.,effective and satisfactory analgesia
same,solubility,"[3]; dilute hydrochloric acid, mixture of 0.34 ml. of N/2 hydrochloric acid and 19.66 ml. of water, read-out: solubility in dilute hydrochloric acid",< 2500 µg/mL
same,solubility,[3]; [5],< 10000 µg/mL
same,ED50,[2],11.6 mg/kg
same,ED50,[1]; sc,10.9 mg/kg
"C=C(C)CN1CC[C@@]2(C)c3cc(O)ccc3C[C@@H]1[C@@H]2C (relative stereo) [Example 8A, 1,2,3,4,5,6-Hexahydro-3-(2-methyl-2-propenyl)-6,11-dimethyl-8-hydroxy-2,6-methano-3-benzazocine]",ED50,[2],0.19 mg/kg
same,ED50,[1]; sc,0.094 mg/kg
"CCC12CCN(CC=C(C)C)C(Cc3ccc(O)cc31)C2C (stereo not drawn) [7D (dextro cis), dextro cis 1,2,3,4,5,6-hexahydro-(3-methyl-2-butenyl)-6-ethyl-11-methyl-8-hydroxy-2,6-methano-3-benzazocine]",dosage of antagonist which reduced the analgesic effect of meperidine by approximately 50 per cent,[1],19.5 mg/kg
"CCC12CCN(CC=C(C)C)C(Cc3ccc(O)cc31)C2C (stereo not drawn) [7D (levo cis), levo cis 1,2,3,4,5,6-hexahydro-(3-methyl-2-butenyl)-6-ethyl-11-methyl-8-hydroxy-2,6-methano-3-benzazocine]",dosage of antagonist which reduced the analgesic effect of meperidine by approximately 50 per cent,[1],3.1 mg/kg
"racemic cis 1,2,3,4,5,6-hexahydro-3-(3-methyl-2-butenyl)-6-ethyl-11-methyl-8-cyclopropanecarbonyloxy-2,6-methano-3-benzazocine hydrochloride [Example 7C]",dosage of antagonist which reduced the analgesic effect of meperidine by approximately 50 per cent,[1],0.0022 mg/kg
